Earlier results as cited in patent publication US6392068B1, “Carborane containing cholesterol, a new type of molecule for targeted boron drug delivery” (The University of Georgia Research Foundation, Inc., priority 1999, dated 2002).

System: tumor cell
Settings: in-vitro; background statement

Na2B12H11 SH [BSH]
retention in the tumor cell: does not stay in the tumor cell but is easily washed out
